Assay results from patent US7557110B2, “Pyrazolo[1,5-A] pyrimidine derivatives” (Teijin Pharma Limited, priority 2003, dated 2009).
Like-named read-outs stand apart in the source and are kept apart here.

How the values were obtained:
CDK-2 = CDK-2 (Homo sapiens, UniProt P24941); experiment: CDK-2 enzyme activity inhibition (33P-ATP filter plate kinase assay); assay type: biochemical
Text: [General Procedure for Measurement of CDK-2 Enzyme Activity Inhibition]

MAPKAP-K2 = MAPKAP-K2 (Homo sapiens, UniProt P49137); experiment: MAPKAP-K2 enzyme activity inhibition (33P-ATP filter plate kinase assay); assay type: biochemical; details: MAPKAP-K2 inhibitory activity; assays conducted at typically 1-100 μM; note: key: +: active; ++: more active; +++: very active
Procedure: [General Procedure for Measurement of MAPKAP-K2 Enzyme Activity Inhibition]
After conducting the reaction for 30 minutes at room temperature, an equivalent volume of a 200 mM phosphoric acid solution was added to suspend the reaction, and 90 μL of the reaction product was adsorbed onto a MultiScreen PH plate (Millipore) and rinsed with a 100 mM phosphoric acid solution. After drying the plate, 30 μL of MicroScint-O (Packard BioScience) was added, and the cpm was measured with a scintillation counter to determine the inhibiting activity. Substrate peptide is […]

[1] = read-out: CDK-2 inhibition IC50

Chain of MAPKAP-K2 (P49137 whole entry): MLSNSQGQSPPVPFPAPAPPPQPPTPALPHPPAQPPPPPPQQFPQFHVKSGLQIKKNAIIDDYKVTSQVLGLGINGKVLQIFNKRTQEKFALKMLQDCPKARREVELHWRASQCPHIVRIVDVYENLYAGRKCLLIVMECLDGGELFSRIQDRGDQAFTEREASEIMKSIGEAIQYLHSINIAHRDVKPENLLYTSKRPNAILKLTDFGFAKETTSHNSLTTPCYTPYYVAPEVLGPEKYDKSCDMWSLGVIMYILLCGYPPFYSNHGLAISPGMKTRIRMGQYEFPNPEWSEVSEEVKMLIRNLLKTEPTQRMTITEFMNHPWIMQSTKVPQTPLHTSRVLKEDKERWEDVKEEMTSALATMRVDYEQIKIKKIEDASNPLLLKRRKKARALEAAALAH

| Compound | IC50 (CDK-2; [1]) [µM] | activity (efficacy against MAPKAP-K2) (MAPKAP-K2) | IC50 (CDK-2) [µM] |
| --- | --- | --- | --- |
| Cc1c(N[C@H]2CC[C@H](N)CC2)nc2ccnn2c1Nc1ccc(-c2cccc(C#N)c2)cc1 [Compound 319] | < 100 | +++ | – |
| CCc1c(NC2CCCNC2)nc2ccnn2c1Nc1ccc(Oc2ccc(C)cc2)cc1 (stereo not shown) [Compound 63] | < 100 | +++ | – |
| Cc1c(N[C@H]2CC[C@H](N)CC2)nc2ccnn2c1Nc1ccc(OCc2ccccc2)cc1 [Compound 176] | < 100 | +++ | – |
| Cc1c(NC2CCC(N)CC2)nc2ccnn2c1Nc1ccc(OCCC2CCCCN2)cc1 (stereo not shown) [Compound 231] | < 100 | ++ | – |
| CCOc1ccc(Nc2c(-c3ccc(OC)cc3)c(N[C@H]3CC[C@H](N)CC3)nc3ccnn23)cc1 [Compound 140] | < 100 | +++ | – |
| CCCOc1ccc(Nc2c(C)c(N[C@H]3CC[C@H](N)CC3)nc3ccnn23)cc1 [Compound 201] | < 100 | +++ | – |
| Cc1cscc1-c1ccc(Nc2c(C)c(N[C@H]3CC[C@H](N)CC3)nc3ccnn23)cc1 [Compound 421] | < 100 | +++ | – |
| CCOc1ccc(Nc2c(C)c(N[C@@H]3CCN(Cc4ccccc4)C3)nc3ccnn23)cc1 [Compound 418] | < 100 | ++ | – |
| Cc1c(N[C@H]2CC[C@H](N)CC2)nc2ccnn2c1Nc1cccc(OCc2cccc(Cl)c2)c1 [Compound 247] | < 100 | ++ | – |
| Cc1c(N[C@H]2CC[C@H](N)CC2)nc2ccnn2c1Nc1ccc(C(=O)Nc2ccccc2)cc1 [Compound 776] | < 100 | +++ | – |
| Cc1c(N[C@H]2CC[C@H](N)CC2)nc2ccnn2c1Nc1ccc(OC2CCN(C)CC2)cc1 [Compound 217] | < 100 | ++ | – |
| Cc1c(N[C@H]2CC[C@H](N)CC2)nc2ccnn2c1Nc1ccc(-c2ccncc2)cc1 [Compound 299] | < 100 | +++ | – |
| Cc1c(N[C@H]2CC[C@H](N)CC2)nc2ccnn2c1Nc1ccc(-c2ccc(CO)cc2)cc1 [Compound 352] | < 100 | +++ | – |
| CCCC1CCNCC1Nc1nc2ccnn2c(Nc2ccc(OCC)cc2)c1C (racemic) [Compound 814, 7-N-(4-Ethoxy-phenyl)-6-methyl-5-N-(4-propyl-piperidin-3-yl)-pyrazolo[1,5-a]pyrimidine-5,7-diamine] | – | ++ | – |
| Cc1c(N[C@H]2CC[C@H](N)CC2)nc2ccnn2c1Nc1ccc2cn[nH]c2c1 [Compound 131] | < 100 | +++ | – |
| CCOc1ccc(Nc2c(C)c(NC3CCCCNC3)nc3ccnn23)cc1 (stereo not shown) [Compound 272, [5-(azaperhydroepin-3-ylamino)-6-methyl(pyrazolo[1,5-a]pyrimidin-7-yl)](4-ethoxyphenyl)amine] | – | ++ | – |
| N[C@H]1CC[C@H](Nc2cc(NCc3cccc(Cl)c3)n3ncc(I)c3n2)CC1 [Compound 297, {5-[(trans-4-aminocyclohexyl)amino]-3-iodo(pyrazolo[1,5-a]pyrimidin-7-yl)}[(3-chlorophenyl)methyl]amine] | < 100 | ++ | – |
| CCOc1ccc(Nc2cc(N[C@H]3CC[C@H](N)CC3)nc3c(C#N)cnn23)cc1 [Compound 64] | < 100 | +++ | – |
| Cc1c(N[C@H]2CC[C@H](N)CC2)nc2ccnn2c1Nc1ccc(-c2ccc(N(C)C)cc2)cc1 [Compound 314] | < 100 | +++ | – |
| Cc1c(N[C@H]2CC[C@H](N)CC2)nc2ccnn2c1Nc1ccc(-c2ccc(C(F)(F)F)cc2)cc1 [Compound 350] | < 100 | +++ | – |
| Cc1c(N[C@H]2CC[C@H](N)CC2)nc2ccnn2c1Nc1ccc(OCCN2CCCCC2)cc1 [Compound 223] | < 100 | +++ | – |
| Cc1c(N[C@H]2CC[C@H](N)CC2)nc2ccnn2c1Nc1ccc(-c2cncnc2)cc1 [Compound 311] | < 100 | +++ | – |
| N#Cc1cnn2c(Nc3ccccc3Cl)cc(N[C@H]3CC[C@H](N)CC3)nc12 [Compound 170] | < 100 | +++ | – |
| Cc1c(N[C@H]2CC[C@H](N)CC2)nc2ccnn2c1Nc1ccc(-c2ccc(C#N)cc2)cc1 [Compound 318] | < 100 | +++ | – |

| Compound | IC50 (CDK-2; [1]) [µM] | activity (efficacy against MAPKAP-K2) (MAPKAP-K2) | IC50 (CDK-2) [µM] |
| --- | --- | --- | --- |
| Cc1c(N[C@H]2CC[C@H](N)CC2)nc2ccnn2c1Nc1ccc(C(=O)NC2CCCC2)cc1 [Compound 463] | < 100 | +++ | – |
| Cc1c(N[C@H]2CC[C@H](N)CC2)nc2ccnn2c1Nc1ccc(-c2ccsc2C=O)cc1 [Compound 310] | < 100 | ++ | – |
| COc1c(N[C@H]2CC[C@H](N)CC2)nc2ccnn2c1Nc1ccc(F)c(Cl)c1 [Compound 172] | < 100 | ++ | – |
| Cc1c(NC2CCCNC2)nc2ccnn2c1Nc1ccccc1F (stereo not shown) [Compound 156] | < 100 | +++ | – |
| N[C@H]1CC[C@H](Nc2cc(NCc3ccc(F)c(Cl)c3)n3ncc(Br)c3n2)CC1 [Compound 13] | < 100 | + | – |
| Cc1c(N[C@H]2CC[C@H](N)CC2)nc2ccnn2c1Nc1ccc(-c2ccccc2Cl)cc1 [Compound 313] | < 100 | ++ | – |
| CCOc1ccc(Nc2c(OC)c(NC3CCCNC3)nc3ccnn23)cc1 (stereo not shown) [Compound 173] | < 100 | +++ | – |
| Cc1c(N[C@H]2CC[C@H](N)CC2)nc2ccnn2c1Nc1ccc(OCCC2CCCCC2)cc1 [Compound 215] | < 100 | ++ | – |
| N#Cc1cnn2c(Nc3ccc(F)c(Cl)c3)cc(N[C@H]3CC[C@H](N)CC3)nc12 [Compound 1] | – | ++ | < 100 |
| Cc1c(N[C@H]2CC[C@H](N)CC2)nc2ccnn2c1Nc1ccc(-c2cc3ccccc3s2)cc1 [Compound 289] | < 100 | +++ | – |
| Cc1c(N[C@H]2CC[C@H](N)CC2)nc2ccnn2c1Nc1cccc(-c2cccnc2)c1 [Compound 450, {5-[(trans-4-aminocyclohexyl)amino]-6-methyl(pyrazolo[1,5-a]pyrimidin-7-yl)}(3-(3-pyridyl)phenyl)amine] | – | +++ | – |
| CCOc1ccc(Nc2c(C)c(N[C@H]3CC[C@H](N)CC3)nc3c(NC(=O)Nc4ccccc4)cnn23)cc1 [Compound 389, N-{5-[(trans-4-aminocyclohexyl)amino]-7-[(4-ethoxyphenyl)amino]-6-methyl(pyrazolo[1,5-a]pyrimidin-3-yl)}(phenylamino)carboxamide] | – | ++ | – |
| Cc1c(N[C@H]2CC[C@H](N)CC2)nc2ccnn2c1Nc1cccc(OCCN2CCNCC2)c1 [Compound 259, {5-[(trans-4-aminocyclohexyl)amino]-6-methyl(pyrazolo[1,5-a]pyrimidin-7-yl)}[3-(2-piperazinylethoxy)phenyl]amine] | – | ++ | – |
| Cc1c(NC2CCCNC2)nc2ccnn2c1Nc1ccc(F)c(Cl)c1 (stereo not shown) [Compound 152] | – | ++ | – |
| CCOc1ccc(Nc2c(C)c(NC(C)(C)CO)nc3ccnn23)cc1 [Compound 371] | < 100 | – | – |
| CCOc1ccc(Nc2c(C)c(NC3(CO)CCCC3)nc3ccnn23)cc1 [Compound 368] | < 100 | – | – |
| Cc1c(N[C@H]2CC[C@H](N)CC2)nc2ccnn2c1Nc1ccc(C(=O)N2CCCC2)cc1 [Compound 792, 4-({5-[(trans-4-aminocyclohexyl)amino]-6-methyl(pyrazolo[1,5-a]pyrimidin-7-yl)}amino)phenyl pyrrolidinyl ketone] | – | +++ | – |
| CCOc1ccc(Nc2c(C)c(N[C@H]3CC[C@H](N)CC3)nc3c(OC)cnn23)cc1 [Compound 425] | < 100 | – | – |
| CCOc1ccc(Nc2c(C)c(N[C@H]3CC[C@H](N)CC3)nc3c(NCc4ccccc4)cnn23)cc1 [Compound 436, {5-[(trans-4-aminocyclohexyl)amino]-6-methyl-[3-benzylamino](pyrazolo[1,5-a]pyrimidin-7-yl)}(4-ethoxyphenyl)amine] | – | + | – |
| CCOc1ccc(Nc2c(C)c(N[C@H]3CC[C@H](N)CC3)nc3c(NS(C)(=O)=O)cnn23)cc1 [Compound 386, {5-[(trans-4-aminocyclohexyl)amino]-7-[(4-ethoxyphenyl)amino]-6-methyl(pyrazolo[1,5-a]pyrimidin-3-yl)}(methylsulfonyl)amine] | – | + | – |
| Cc1c(N[C@H]2CC[C@H](N)CC2)nc2ccnn2c1Nc1ccc(C#Cc2ccccc2)cc1 [Compound 375, {5-[(trans-4-aminocyclohexyl)amino]-6-methyl(pyrazolo[1,5-a]pyrimidin-7-yl)}[4-(2-phenylethynyl)phenyl]amine] | – | +++ | – |
| CCOc1ccc(Nc2c(C)c(NC(CO)C(C)C)nc3ccnn23)cc1 (stereo not shown) [Compound 366] | < 100 | – | – |
| CCOc1ccc(Nc2c(C)c(N[C@H]3CC[C@H](N)CC3)nc3c(NC(C)=O)cnn23)cc1 [Compound 378, N-{5-[(trans-4-aminocyclohexyl)amino]-7-[(4-ethoxyphenyl)amino]-6-methyl(pyrazolo[1,5-a]pyrimidin-3-yl)}acetamide] | – | + | – |
